“Also recorded” adds a separate entry of the source. Read-outs that look alike come from different tables or passages of the source.
What was measured:
[1] = molecular target: T1, human leukocyte elastase (HLE) (Homo sapiens, UniProt P08246); experiment: HLE amidolytic activity (methoxysuccinyl-Ala-Ala-Pro-Val-p-nitroanilide); type: biochemical; settings: in the presence of 10% dimethylsulfoxide and 0.1% Triton X-100
T1 sequence (P08246 30-267): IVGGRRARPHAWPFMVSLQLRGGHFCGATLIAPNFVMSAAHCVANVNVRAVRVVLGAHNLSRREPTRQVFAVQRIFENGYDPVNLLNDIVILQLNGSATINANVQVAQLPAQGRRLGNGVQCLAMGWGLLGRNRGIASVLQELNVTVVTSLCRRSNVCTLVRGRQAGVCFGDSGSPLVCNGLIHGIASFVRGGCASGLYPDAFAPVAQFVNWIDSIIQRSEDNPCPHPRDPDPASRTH

leukocyte elastase [2] = experiment: Leukocyte elastase activity in gingival extracts of LPS-injected rats; type: in vivo, rat; settings: 2 mg or 5 mg CMT-3 daily, oral gavage, six days, succinyl-Ala-Ala-Ala-p-nitroanilide
Method: Rats received 0.01 mg of E. coli lipopolysaccharide (LPS) or only a vehicle of saline injected in a volume of 10 μl into the maxillary and mandibular labial gingiva on alternate days for a period of six days. Two sets of rats also received 2 mg or 5 mg CMT-3 daily in a volume of 1 ml, administered by oral gavage, for the six day period, while the other sets of rats received only the vehicle of 2% carboxymethylcellulose. At the end of the six day treatment period, the animals were sacrificed and the gingival tissues were dissected. The tissues from each experimental group were pooled, frozen and thawed, and extracted for assays of enzymatic activity according to the procedure of Yu et al. (Z. Yu, N. S. Ramamurthy, M. Leung, K. M. Chang, T. F. McNamara, and L. M. Golub, "Chemically Modified Tetracycline Normalizes Collagen Metabolism in Diabetic Rats," J. Periodont. Res. 28, 420-428 (1993)). Leukocyte elastase activity was assayed using the substrate succinyl-Ala-Ala-Ala-p-nitroanilide according to the procedure of Ramamurthy and Golub (1983) (N. S. Ramamurthy, and L. M. Golub, "Diabetes Increases Collagenase Activity in Extracts of Rat Gingiva and Skin," J. Periodont. Res. 18, 23-30 (1983)). The finding reported here is the capacity of orally administered CMT-3 to reduce the level of leukocyte elastase activity in the gingival extracts of LPS-injected rats. […]

[3] = system: human neutrophils (live PMN's); experiment: Neutrophil (PMN + 0.5 nM PMA)-mediated R22-ECM hydrolysis (3H-proline cpm released in 6 h); type: cell-based
Description: The activity of various tetracyclines was investigated employing an in vitro assay of inflammatory tissue injury in which human neutrophils are allowed to degrade a biosynthetically prepared complete interstitial stromal extracellular matrix (ECM). A neutrophil is one type of leukocyte (polymorphonuclear leukocyte). […] E. J. Roemer, K. J. Stanton, and S. R. Simon, "In Vitro Assay Systems for Inflammatory Cell-Mediated Damage to Interstitial Extracellular Matrix," In Vitro Toxicol. 7,75-81 (1994); E. J. Roemer, K. J. Stanton, and S. R. Simon, "In Vitro Assay Systems for Cell Interactions With Interstitial Extracellular Matrix," In Vitro Toxicol. 7,209-224 (1994).
The serine proteinase inhibiting activity of tetracyclines was tested using an in vitro assay of inflammatory tissue injury in which human neutrophils (live PMN's) were allowed to degrade a biosynthetically prepared complete interstitial stromal extracellular matrix (ECM) produced by cultured R22 rat heart smooth muscle cells as described by Roemer et al. (E. J. Roemer, K. J. Stanton, and S. R. Simon, "In Vitro Assay Systems for Inflammatory Cell-Mediated Damage to Interstitial Extracellular Matrix," In Vitro Toxicol. 7,75-81 (1994); E. J. Roemer, K. J. Stanton, and S. R. Simon, "In Vitro Assay Systems for Cell Interactions With Interstitial Extracellular Matrix," In Vitro Toxicol. 7,209-224 (1994)). Ten different chemically modified tetracyclines (CMTs) designated CMT-1 through CMT-10 and doxycycline, at concentrations ranging from 5 μM to 50 μM, were added to the ECM simultaneously with a suspension of 2×10^6 viable human PMN/mL in Hank's balanced salts solution (HBSS). In these studies, the ECM was metabolically radiolabeled with ^3 H-proline, and counts solubilized after six hours of incubation were measured and compared with counts released after incubation with PMN alone.

[4] = molecular target: T1, human leukocyte elastase (HLE); experiment: HLE amidolytic activity (methoxysuccinyl-Ala-Ala-Pro-Val-p-nitroanilide); type: biochemical
Description: This oligopeptide is generally assumed to occupy the first five subsites of the extended substrate binding domain in HLE.
To avoid time-dependent adsorption of HLE onto the wells of the 96-well microplates used in the amidolytic assays, the plates were pretreated with a solution of 0.2% bovine serum albumin. […] The […] concentration at which the Dixon plots intersect is a measure of Ki for the inhibitor.
The inhibitory activity of doxycycline towards amidolysis of methoxysuccinyl-Ala-Ala-Pro-Val-p-nitroanilide by HLE was also determined in the presence of 2% DMSO and no detergent, as described above for CMT-3.

leukocyte elastase [5] = molecular target: T2, leukocyte elastase (Homo sapiens, UniProt P08246); experiment: Leukocyte elastase inhibitory activity; type: biochemical
T2 sequence (P08246 30-247): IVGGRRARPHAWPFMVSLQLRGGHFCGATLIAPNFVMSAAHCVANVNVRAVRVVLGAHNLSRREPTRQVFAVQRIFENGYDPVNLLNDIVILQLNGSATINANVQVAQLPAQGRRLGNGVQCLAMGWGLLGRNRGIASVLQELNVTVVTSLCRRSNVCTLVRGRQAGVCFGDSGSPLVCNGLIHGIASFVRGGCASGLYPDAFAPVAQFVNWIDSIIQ

[6] = molecular target: T1, human leukocyte elastase (HLE); experiment: ECM degradation mediated by purified HLE; type: biochemical
Method: Direct inhibition of HLE by CMT-3 was determined (Example 2) using a modification of the assay of human leukocyte elastase (HLE) activity described by Ying et al. (Q. Ying, A. R. Rinehart, S. R. Simon, and J. C. Cheronis, "Inhibition of Human Leukocyte Elastase by Ursolic Acid: Evidence for a Hydrophobic Binding Site for Pentacyclic Triterpenes," Biochem. J. 277, 521-526 (1991)) in which the organic solvent and detergent concentrations have been reduced, using a traditional assay of human leukocyte elastase (HLE) activity by measurement of the amidolysis of the chromogenic oligopeptide substrate, methoxysuccinyl-Ala-Ala-Pro-Val-p-nitroanilide. This oligopeptide is generally assumed to occupy the first five subsites of the extended substrate binding domain in HLE. […] When CMT-3 is employed in the assay of ECM degradation mediated by purified HLE rather than live neutrophils, it proves to be an effective inhibitor, with an apparent I50 of ~25-50 μM.
The capacity of CMT-3 to inhibit HLE is not confined to amidolytic assays, as already shown in FIG. 2, in which the degradation of a complete interstitial extracellular matrix by purified HLE is inhibited by CMT-3.

`NC(=O)C1=C(O)C2(O)C(=O)C3=C(O)c4c(O)cccc4CC3CC2CC1=O` (stereo not drawn) [CMT-3, 6-demethyl-6-deoxy-4-de(dimethylamino)tetracycline] was tested, and the “inhibitory potency, HLE amidolytic activity, in words” value [1] was “markedly reduced”, the “leukocyte elastase activity in gingival extracts, in words” value (leukocyte elastase [2]) was “reduced the activity of leukocyte elastase; also recorded: to the levels detected in animals receiving gingival injections of saline solution alone” and the “inhibition of neutrophil-mediated ECM degradation” value [3] was ~ 50%. For the same molecule, the “capacity to inhibit ECM degradation (protecting the ECM from neutrophil-mediated destruction), in words” value ([3]; 30 μM, FIG. 1) was “far superior to other tetracyclines in protecting the ECM from neutrophil-mediated destruction”, the “inhibition of ECM degradation, in words” value ([3]; 5-50 μM, Table 1 and FIG. 1) was “good inhibition of ECM degradation at all doses employed in this assay” and the “inhibition of neutrophil-mediated ECM degradation” value ([3]; 25-50 μM, dose response studies) was “approximately 50%”. For the same molecule, the activity at 5 µM ([3]; Homo sapiens, Neutrophil, 5 μm, control = hydrolysis in absence of any inhibitor normalized to 100%, 6 h at 37° C.) was 69%, the activity at 25 µM ([3]; Homo sapiens, Neutrophil, 25 μm, control = hydrolysis in absence of any inhibitor normalized to 100%, 6 h at 37° C.) was 55% and the activity at 50 µM ([3]; Homo sapiens, Neutrophil, 50 μm, control = hydrolysis in absence of any inhibitor normalized to 100%, 6 h at 37° C.) was 50%. The Ki ([4]; 2% DMSO, no detergent, 100 μM through 300 μM substrate, Dixon plot, read-out: Ki for inhibition of amidolytic activity of HLE) was 25 to 40 µM, the “mechanism of inhibition of HLE amidolytic activity” value ([4]; Dixon and Cornish-Bowden plots) was “predominantly competitive inhibitor” and the Ki ([4]; Dixon and Cornish-Bowden plots, FIGS. 3-5, read-out: apparent K1, inhibition of amidolysis) was 18 to 40 µM. The “leukocyte elastase inhibitory activity, in words” value (leukocyte elastase [5]) was “substantial leukocyte elastase inhibitory activity”, the “inhibition of HLE-mediated degradation of ECM, in words” value ([6]; FIG. 2: 25 μM CMT-3, 10 μM purified HLE, compared with PMN, other tetracyclines at comparable doses) was “comparable inhibition of human neutrophil-mediated and human leukocyte elastase-mediated degradation of extracellular matrix; also recorded: comparable to that determined from the assays of HLE amidolytic activity” and the IC50 ([6]; purified HLE rather than live neutrophils, read-out: apparent I50, ECM degradation mediated by purified HLE) was 25 to 50 µM.

Source: patent US5773430A, “Serine proteinase inhibitory activity by hydrophobic tetracycline” (Research Foundation of State University of New York, priority 1997, dated 1998)
